# Assay results from patent publication US6702803B2, “Multi-step drug dosage forms” (Delsys Pharmaceutical Corporation, priority 2000, dated 2004).
# Assay: Compatibility study of Drug A with polymeric films (chromatographic purity on storage)
# Format: physicochemical
# Conditions: HPMC film, HPMC/HPC blend film, polyvinyl alcohol film; 25°C/60% RH, 40°C/75% RH (closed and open bottle), 50°C; 2 to 12 weeks
# Experimental: Compatibility studies were conducted to assess the compatibility of Drug A with several polymeric films, to determine an appropriate material for the substrate. The films studied were an HPMC film, an. HPMC/HPC blend film, and a polyvinyl alcohol film. Each film was cut into pieces approximately 0.5 cm square and a piece of each film was placed into a glass bottle. Approximately 500 mg of Drug A was added to each bottle. The bottles were closed with Teflon lined plastic caps. Bottles of Drug A and each of the films separately were prepared and used as controls. The controls and drug/polymer samples were stored in a closed chamber under the following conditions, and tested at the indicated time periods: A) 25° C.±2° C.; 60% RH±5%; tested at 2,4 and 12 weeks; B) 40° C.±2° C.; 75% RH±5%; tested at 2,4 and 12 weeks; C) 40° C.±2 S^C; 75% RH±5%, open bottle; tested at 2, 4 and 12 weeks; and D) 50° C.±2*C.; no humidity control; tested at 2,4, and 8 weeks. At each time point, the samples were tested for chromatographic purity. […] Several dosage forms were made, as outlined in Table 1. “ER” refers to the extended release portion. “HPMC, HPC” refers to a hydroxypropyrmethyl cellulose, hydroxypropyl cellulose copolymer. “PEO” refers to a polyethylene oxide polymer, “HPMC, PEG” refers to hydroxypropylmethyl cellulose containing polyethylene glycol (PEG) plasticizer.
structure (smiles),measurement,value
"Cc1nccn1CC1CCc2c(c3ccccc3n2C)C1=O (stereo not shown) [Drug A, 1,2,3,9-tetrahydro-9-methyl-3-[(2-methyl-1H-imidazol-1-yl)methyl]-4H-carbazol-4-one]","change in chromatographic purity of Drug A stored with polymer films, compared to control samples",no changes in purity
